# Several values for one entry are separate records, joined by “and”; a condition that tells them apart may be missing. Equal values may be shown once.
# Assays:
# Assay in all cases: Post-emergence/greenhouse herbicidal test
# Format in all cases: in vivo
# [1] = test system: Abutilon theophrasti; details: post-emergence, about 3 weeks
# From the text: (§1) Procarbazone- and flucarbazone-sodium were used as 70 WG formulation. Fenoxaprop-P-ethyl was used in a mixture with mefenpyr-diethyl (75 g of mefenpyr-diethyl/l) as Ralon® Super 69 EW. Cinidon-ethyl and florasulam and iodosufuron in a mixture with mefenpyr-diethyl were used in the form of the finished formulations Lotus® 200 EC, Primus® 50 SC and Hussar® 5 WG (15% mefenpyr-diethyl), respectively. Amicarbazone was used as 70 WG formulation.
# (§2) In pre- and post-emergence experiments, the spray liquor is usually admixed with a surfactant (Renex 36), at a concentration of 0.1%.
# (§3) Test plants are grown under controlled conditions (temperature and light).
# (§4) Following the spray application, the plant containers are kept in a greenhouse under constant light and temperature conditions.
# (§5) After about 3 weeks, the degree of damage to the plants is rated in % damage in comparison to the development of the untreated control.
# (§6) 0% =no damage (like untreated control)
# (§7) 100% =total destruction/damage
# [2] = test system: Alopecurus myosuroides; details: post-emergence, about 3 weeks
# From the text: as §1, §2, §3, §4, §5, §6, §7
# [3] = test system: Amaranthus retroflexus; details: post-emergence, about 3 weeks
# From the text: as §1, §2, §3, §4, §5, §6, §7
# [4] = test system: Avena fatua
# From the text: as §1, §2, §3, §4, §5, §6, §7
# [5] = test system: Bromus secalinus
# From the text: as §1, §2, §3, §4, §5, §6, §7
# [6] = test system: Cassia tora
# From the text: as §1, §2, §3, §4, §5, §6, §7
# [7] = test system: Digitaria sanguinalis; details: post-emergence, about 3 weeks
# From the text: as §1, §2, §3, §4, §5, §6, §7
# [8] = test system: Echinochloa crus-galli
# From the text: as §1, §2, §3, §4, §5, §6, §7
# [9] = test system: Galium aparine; details: post-emergence, about 3 weeks
# From the text: as §1, §2, §3, §4, §5, §6, §7
# [10] = test system: Lolium perenne; details: post-emergence, about 3 weeks
# From the text: as §1, §2, §3, §4, §5, §6, §7
# [11] = test system: Matricaria inodora; details: 2 g of ai/ha, post-emergence, about 3 weeks
# From the text: as §1, §2, §3, §4, §5, §6, §7
# [12] = test system: Polygonum convolvolus
# From the text: as §1, §2, §3, §4, §5, §6, §7
# [13] = test system: Veronica persicaria; details: post-emergence, about 3 weeks
# From the text: as §1, §2, §3, §4, §5, §6, §7
# [14] = test system: Viola arvensis; details: post-emergence, about 3 weeks
# From the text: as §1, §2, §3, §4, §5, §6, §7
# [15] = test system: Xanthium strumarium; details: post-emergence, about 3 weeks
# From the text: as §1, §2, §3, §4, §5, §6, §7
# [16] = test system: Setaria viridis
# [17] = test system: Cyperus esculentus; details: post-emergence, about 3 weeks
# From the text: as §1, §2, §3, §4, §5, §6, §7
# [18] = test system: Eriochloa villosa; details: 15 g of ai/ha, post-emergence, about 3 weeks
# From the text: as §1, §2, §3, §4, §5, §6, §7
# [19] = test system: Ipomoea hederacea; details: post-emergence, about 3 weeks
# From the text: as §1, §2, §3, §4, §5, §6, §7
# [20] = test system: Solanum nigrum; details: 30 g of ai/ha, post-emergence, about 3 weeks
# From the text: as §1, §2, §3, §4, §5, §6, §7
# [21] = test system: Stellaria media; details: post-emergence, about 3 weeks
# From the text: as §1, §2, §3, §4, §5, §6, §7
# [22] = 2 g of ai/ha, post-emergence, about 3 weeks
# [23] = 4 g of ai/ha, post-emergence, about 3 weeks
# [24] = 8 g of ai/ha, post-emergence, about 3 weeks
# [25] = 15 g of ai/ha, post-emergence, about 3 weeks
# [26] = 125 g of ai/ha, post-emergence, about 3 weeks
# [27] = application rate 2 g ai/ha, iodosulfuron tested as Hussar (iodosulfuron 5% & mefenpyr 15%)
# [28] = application rate 4 g ai/ha, iodosulfuron tested as Hussar (iodosulfuron 5% & mefenpyr 15%)
# [29] = application rate 8 g ai/ha, iodosulfuron tested as Hussar (iodosulfuron 5% & mefenpyr 15%)
# [30] = 30 g of ai/ha, post-emergence, about 3 weeks
# [31] = 60 g of ai/ha, post-emergence, about 3 weeks
structure (smiles),measurement,setting,value
"COc1ncc(F)c2nc(S(=O)(=O)Nc3c(F)cccc3F)nn12 [Florasulam, N-(2,6-difluoro-phenyl)-8-fluoro-5-methoxy-[1,2,4]-triazolo-[1,5-c]-pyrimidine-2-sulphonamide]",Abutilon theophrasti observed,[1]; 2 g of ai/ha,20%
same,Abutilon theophrasti observed,[1]; 4 g of ai/ha,30%
same,Alopecurus myosuroides observed,[2]; 2 g of ai/ha,0%
same,Alopecurus myosuroides observed,[2]; 4 g of ai/ha,0%
same,Amaranthus retroflexus observed,[3]; 2 g of ai/ha,70%
same,Amaranthus retroflexus observed,[3]; 4 g of ai/ha,70%
same,Avena fatua observed,[4]; [22],0%
same,Avena fatua observed,[4]; [23],10%
same,Avena fatua observed,[4]; [24],30%
same,Avena fatua observed,[4]; [25],50%
same,Bromus secalinus observed,[5]; [22],0%
same,Bromus secalinus observed,[5]; [23],0%
same,Cassia tora observed,[6]; [24],90%
same,Cassia tora observed,[6]; [25],95%
same,Digitaria sanguinalis observed,[7]; 2 g of ai/ha,0%
same,Digitaria sanguinalis observed,[7]; 4 g of ai/ha,0%
same,Echinochloa crus-galli observed,[8]; [22],10%
same,Echinochloa crus-galli observed,[8]; [23],40%
same,Galium aparine observed,[9]; 2 g of ai/ha,50%
same,Galium aparine observed,[9]; 4 g of ai/ha,50%
same,Lolium perenne observed,[10]; 2 g of ai/ha,0%
same,Lolium perenne observed,[10]; 4 g of ai/ha,0%
same,Lolium perenne observed,[10]; 8 g of ai/ha,20%
same,Lolium perenne observed,[10]; 15 g of ai/ha,30%
same,Matricaria inodora observed,[11],70%
same,Polygonum convolvolus observed,[12]; [24],95%
same,Polygonum convolvolus observed,[12]; [25],95%
same,Veronica persicaria observed,[13]; 2 g of ai/ha,0%
same,Veronica persicaria observed,[13]; 4 g of ai/ha,0%
same,Viola arvensis observed,[14]; 2 g of ai/ha,0%
same,Viola arvensis observed,[14]; 4 g of ai/ha,0%
same,Viola arvensis observed,[14]; 8 g of ai/ha,70%
same,Xanthium strumarium observed,[15]; 2 g of ai/ha,40%
same,Xanthium strumarium observed,[15]; 4 g of ai/ha,50%
"CC(C)N(C(=O)COc1nnc(C(F)(F)F)s1)c1ccc(F)cc1 [Flufenacet, N-(4-fluorophenyl)-N-isopropyl-2-(5-trifluoromethyl-1,3,4-thiadiazol-2-yl-oxy)-acetamide]",Amaranthus retroflexus observed,[3]; 60 g of ai/ha,0%
same,Amaranthus retroflexus observed,[3]; 125 g of ai/ha,0%
same,Avena fatua observed,[4]; [26],70%
same,Polygonum convolvolus observed,[12]; [26],0%
"COC(=O)c1ccc(I)cc1S(=O)(=O)NC(=O)Nc1nc(C)nc(OC)n1.[Na] [Iodosufuron, N-(4-methoxy-6-methyl-1,3,5-triazin-2-yl)-N′-(5-iodo-2-methoxycarbonyl-phenylsulphonyl)-urea sodium salt]",Avena fatua observed,[4]; [24],70%
same,Avena fatua observed,"[4]; Table B-62, application rate 2 g ai/ha, iodosulfuron tested as Hussar (iodosulfuron 5% & mefenpyr 15%)",10
same,Bromus secalinus observed,[5]; [27],0
same,Bromus secalinus observed,[5]; [28],0
same,Bromus secalinus observed,[5]; [29],0
same,Cassia tora observed,[6]; [29],80
same,Echinochloa crus-galli observed,[8]; [27],20
same,Polygonum convolvolus observed,[12]; [27],80
same,Setaria viridis observed,[16]; [28],0
"CCCOc1nn(C(=O)NS(=O)(=O)c2ccccc2C(=O)OC)c(=O)n1C [Procarbazone-sodium, 2-(2-methoxycarbonyl-phenylsulphonylaminocarbonyl)-4-methyl-5-n-propoxy-2,4-dihydro-3H-1,2,4-triazol-3-one]",Abutilon theophrasti observed,[1]; 60 g of ai/ha,60%
same,Alopecurus myosuroides observed,[2]; 15 g of ai/ha,60% and 80%
same,Alopecurus myosuroides observed,[2]; 30 g of ai/ha,70% and 80%
same,Alopecurus myosuroides observed,[2]; 60 g of ai/ha,70% and 90%
same,Amaranthus retroflexus observed,[3]; 15 g of ai/ha,80% and 98%
same,Amaranthus retroflexus observed,[3]; 30 g of ai/ha,90% and 98%
same,Amaranthus retroflexus observed,[3]; 60 g of ai/ha,98%
same,Avena fatua observed,[4]; [25],70% and 50% and 80%
same,Avena fatua observed,[4]; [30],90% and 50%
same,Avena fatua observed,[4]; [31],60%
same,Bromus secalinus observed,[5]; [25],80% and 70%
same,Bromus secalinus observed,[5]; [30],80%
same,Bromus secalinus observed,[5]; [31],90%
same,Bromus secalinus observed,[5]; application rate 15 g ai/ha,90
same,Bromus secalinus observed,[5]; application rate 30 g ai/ha,90
same,Cassia tora observed,[6]; [25],50%
same,Cassia tora observed,[6]; [31],30% and 50%
same,Cyperus esculentus observed,[17]; 15 g of ai/ha,70%
same,Cyperus esculentus observed,[17]; 30 g of ai/ha,80%
same,Echinochloa crus-galli observed,[8]; [30],90%
same,Echinochloa crus-galli observed,[8]; [31],90%
same,Eriochloa villosa observed,[18],0%
same,Galium aparine observed,[9]; 15 g of ai/ha,20%
same,Galium aparine observed,[9]; 30 g of ai/ha,30%
same,Galium aparine observed,[9]; 60 g of ai/ha,40%
same,Ipomoea hederacea observed,[19]; 15 g of ai/ha,60%
same,Ipomoea hederacea observed,[19]; 30 g of ai/ha,70%
same,Ipomoea hederacea observed,[19]; 60 g of ai/ha,70%
same,Lolium perenne observed,[10]; 15 g of ai/ha,0%
same,Lolium perenne observed,[10]; 30 g of ai/ha,30% and 20%
same,Lolium perenne observed,[10]; 60 g of ai/ha,50%
same,Polygonum convolvolus observed,[12]; [30],0%
same,Polygonum convolvolus observed,[12]; [31],0%
same,Polygonum convolvolus observed,[12]; application rate 15 g ai/ha,0
same,Polygonum convolvolus observed,[12]; application rate 30 g ai/ha,0
same,Polygonum convolvolus observed,[12]; application rate 60 g ai/ha,0
same,Solanum nigrum observed,[20],70%
same,Stellaria media observed,[21]; 15 g of ai/ha,50%
same,Stellaria media observed,[21]; 30 g of ai/ha,60%
same,Stellaria media observed,[21]; 60 g of ai/ha,70%
same,Viola arvensis observed,[14]; 30 g of ai/ha,50% and 70%
same,Viola arvensis observed,[14]; 60 g of ai/ha,80%
same,Xanthium strumarium observed,[15]; 15 g of ai/ha,60%
same,Xanthium strumarium observed,[15]; 30 g of ai/ha,70% and 60%
same,Xanthium strumarium observed,[15]; 60 g of ai/ha,60%
same,Setaria viridis observed,[16]; application rate 15 g ai/ha,0
same,Setaria viridis observed,[16]; application rate 30 g ai/ha,0
same,Setaria viridis observed,[16]; application rate 60 g ai/ha,20

# Source: patent publication US20030211942A1, “Aryl sulfonyl amino carbonyl triazole based selective herbicides” (priority 2000, published 2003)
